Results taken from ChEMBL document CHEMBL1614632, “Trend analysis of a database of intravenous pharmacokinetic parameters in humans for 670 drug compounds” (Drug Metab Dispos, 2008).

Columns and labels:
[1] = clinical; conditions: human, in vivo, iv, Vdss
[2] = clinical; conditions: human, in vivo, iv, CL
[3] = clinical; conditions: human, in vivo, iv
[4] = clinical; conditions: human, in vivo, iv, t1/2

| SMILES | Vd [1] [L/kg] | clearance [2] [mL/min/kg] | MRT [3] [h] | half-life [4] [h] |
| --- | --- | --- | --- | --- |
| CCCCCN(CCCOC)C(=O)C(CCC(=O)O)NC(=O)c1ccc(Cl)c(Cl)c1 (stereo not given) [LOXIGLUMIDE] | 0.24 | 1 | 4 | 5.2 |
| COC(=O)Nc1nc2ccc(C(=O)c3ccccc3)cc2[nH]1 [MEBENDAZOLE] | 1.2 | 15 | 1.3 | 1.1 |
| CC(CCc1ccc2c(c1)OCO2)NCC(O)c1ccc(O)c(C(N)=O)c1 (stereo not given) [MEDROXALOL] | 7.9 | 16 | 8.2 | 11 |
| CN(C)C(=N)N=C(N)N [METFORMIN] | 0.64 | 7.4 | 1.4 | 1.7 |
| Cn1cc[nH]c1=S [METHIMAZOLE] | 0.86 | 3.7 | 3.8 | 2.4 |
| C[C@](N)(Cc1ccc(O)c(O)c1)C(=O)O [METHYLDOPA] | 0.69 | 3.5 | 3.3 | 5.9 |
| CCN(CC)CCNC(=O)c1cc(Cl)c(N)cc1OC [METOCLOPRAMIDE] | 3.2 | 5.7 | 9.4 | 7.2 |
| Cc1ccccc1N1C(=O)c2cc(S(N)(=O)=O)c(Cl)cc2NC1C (stereo not given) [METOLAZONE] | 1.6 | 1.4 | 19 | 20 |
| Cc1ncc([N+](=O)[O-])n1CCO [METRONIDAZOLE] | 0.4 | 0.85 | 7.8 | 7.1 |
| OCCN1C[C@H](O)[C@@H](O)[C@H](O)[C@H]1CO [MIGLITOL] | 0.28 | 1.7 | 2.7 | 2.3 |
| Cc1[nH]c(=O)c(C#N)cc1-c1ccncc1 [MILRINONE] | 0.25 | 6.2 | 0.67 | 0.8 |
| O=C(NCCN1CCOCC1)c1ccc(Cl)cc1 [MOCLOBEMIDE] | 1.1 | 10 | 1.8 | 1.5 |
| CC(C)(O)c1ccccc1CC[C@@H](SCC1(CC(=O)O)CC1)c1cccc(/C=C/c2ccc3ccc(Cl)cc3n2)c1 [MONTELUKAST] | 0.15 | 0.68 | 3.8 | 5 |
| CN1CC[C@]23c4c5ccc(O)c4O[C@H]2[C@@H](O[C@@H]2O[C@H](C(=O)O)[C@@H](O)[C@H](O)[C@H]2O)C=C[C@H]3[C@H]1C5 [MORPHINE GLUCURONIDE] | 0.12 | 2.2 | 0.91 | 1.4 |
| COc1nc(C)nc(Cl)c1N=C1NCCN1 [MOXONIDINE] | 1.8 | 11 | 2.7 | 2.2 |
| Oc1ccc2c3c1O[C@H]1[C@@H](O)CC[C@@]4(O)[C@@H](C2)N(CC2CCC2)CC[C@]314 [NALBUPHINE] | 4.6 | 22 | 3.5 | 3.7 |
| CC(C)[C@H]1CC[C@H](C(=O)N[C@H](Cc2ccccc2)C(=O)O)CC1 [NATEGLINIDE] | 0.15 | 1.8 | 1.4 | 1.5 |
| OC(CNCC(O)C1CCc2cc(F)ccc2O1)C1CCc2cc(F)ccc2O1 (stereo not given) [NEBIVOLOL] | 11 | 14 | 13 | 10 |
| CN1CCOC(c2ccccc2)c2ccccc2C1 (stereo not given) [NEFOPAM] | 5.6 | 12 | 8.1 | 5 |
| COc1nc(N)nc2c1ncn2[C@@H]1O[C@H](CO)[C@@H](O)[C@@H]1O [NELARABINE] | 4.9 | 81 | 1 | 0.5 |
